Reference: patent US20150299143A1, “SUBSTITUTED TRIAZOLE AND IMIDAZOLE COMPOUNDS” (HOFFMANN-LA ROCHE INC., priority 2012, published 2015)

Tests used:
β 1i (caspase-like) = target: T1, β 1i (caspase-like) (Homo sapiens, UniProt P28065+P40306); experiment: Cell-Based Proteasome subunit activity/selectivity assay, β1i, substrate (PAL)2Rh110; details: Ramos cells; substrate (PAL)2Rh110 (β1i); highest concentration tested 20 μM; read-out: Ic50:ramos:rh110-(pal)2
T1 construct: protease activity associated with the proteasome complex in cultured cells; endogenous in cells; host or cells: Ramos cells
Text: (§1) Cell-Based Proteasome Activity/Selectivity Assay
(§2) The Cell-Based Proteasome subunit activity/selectivity assay was a panel of 5 fluorogenic assays that independently measured the activity of β5c or β 5i (chymotrypsin-like activity), β 2c/2i (trypsin-like), and β 1c or β 1i (caspase-like) protease activity associated with the proteasome complex in cultured cells. Specifically, the following substrates were used for respective subunit activities: β 1i (PAL)2Rh110, β 1c: (LLE)2 Rh110, β 2c/2i: (KQL)2Rh110, β 5c: (WLA)2Rh110, β 5i: (ANW)2Rh110. The following procedure was followed:
(§3) Added 0.5 μl of 100× 4-fold serial diluted test compounds or DMSO to each well. Highest concentration of compound tested was 20 μM, thus compound serial dilution started from […]. Incubated for 30 minutes at 37° C. Then equilibrated at room temperature for 15 minutes. […] Shaked for one minute @ 700 rpm. Incubated for 120 min at room temperature. Then read the plates with an Envision multilabel plate reader (PerkinElmer) with 500 nm excitation/519 nm emission.

[1] = target: T2, β5c (chymotrypsin-like activity) (Homo sapiens, UniProt P20618+P28074); experiment: Cell-Based Proteasome subunit activity/selectivity assay, β5c, substrate (WLA)2Rh110; details: Ramos cells; substrate (WLA)2Rh110 (β5c); highest concentration tested 20 μM; read-out: Ic50:ramos:rh110-(wla)2
T2 construct: protease activity associated with the proteasome complex in cultured cells; endogenous in cells; host or cells: Ramos cells
Text: as §1, §2, §3

[2] = target: T3, β 5i (chymotrypsin-like activity) (Homo sapiens, UniProt P20618+P28062); experiment: Cell-Based Proteasome subunit activity/selectivity assay, β5i, substrate (ANW)2Rh110; details: Ramos cells; substrate (ANW)2Rh110 (β5i); highest concentration tested 20 μM; read-out: Ic50:ramos:ac-(anw)2-r110
T3 construct: protease activity associated with the proteasome complex in cultured cells; endogenous in cells; host or cells: Ramos cells
Text: as §1, §2, §3

β 2c/2i (trypsin-like) = experiment: Cell-Based Proteasome subunit activity/selectivity assay, β2c/2i, substrate (KQL)2Rh110; details: Ramos cells; substrate (KQL)2Rh110 (β2c/2i); highest concentration tested 20 μM
Text: as §1, §2, §3

β 1c (caspase-like) = target: T4, β 1c (caspase-like) (Homo sapiens, UniProt P28072+Q99436); experiment: Cell-Based Proteasome subunit activity/selectivity assay, β1c, substrate (LLE)2Rh110; details: Ramos cells; substrate (LLE)2Rh110 (β1c); highest concentration tested 20 μM; read-out: Ic50:ramos:rh110-(lle)2
T4 construct: protease activity associated with the proteasome complex in cultured cells; endogenous in cells; host or cells: Ramos cells
Text: as §1, §2, §3

Row | IC50 (β 1i (caspase-like)) [µM] | IC50 [1] [µM] | IC50 [2] [nM] | IC50 (β 2c/2i (trypsin-like)) [µM] | IC50 (β 1c (caspase-like)) [µM] | Compound
1 | ≥ 20 | ≥ 20 | 497 | ≥ 20 | ≥ 20 | COc1cc(C(F)(F)F)ccc1C(=O)NCCn1cnc(C(=O)NC(C#N)c2ccc(Br)cc2)c1 (stereo not drawn) [Example 93, 1-[2-(2-Methoxy-4-trifluoromethyl-benzoylamino)-ethyl]-1H-imidazole-4-carboxylic acid [(4-bromo-phenyl)-cyano-methyl]-amide]
2 | ≥ 20 | 14.3 | 176 | ≥ 20 | ≥ 20 | O=C(CCNC(=O)c1cn(CCNC(=O)c2ccc(C(F)(F)F)cc2F)nn1)c1ccccc1 [Example 78]
3 | ≥ 20 | ≥ 20 | 239 | ≥ 20 | ≥ 20 | CCc1ccc(C(C#N)NC(=O)c2cn(CCCNC(=O)c3ccc(C(F)(F)F)cc3OC)nn2)cc1 (stereo not drawn) [Example 85, 1-[3-(2-Methoxy-4-trifluoromethyl-benzoylamino)-propyl]-1H-[1,2,3]triazole-4-carboxylic acid [cyano-(4-ethyl-phenyl)-methyl]-amide]
4 | ≥ 20 | 8.55 | 2470 | ≥ 20 | ≥ 20 | CCc1ccc(C(C#N)NC(=O)c2cn(CC/N=C(\SC)c3ccc(OC)c(OC)c3OC)nn2)cc1 (stereo not drawn) [Example 87, N-[2-(4-{[Cyano-(4-ethyl-phenyl)-methyl]-carbamoyl}-[1,2,3]triazol-1-yl)-ethyl]-2,3,4-trimethoxy-thiobenzimidic acid methyl ester]
5 | ≥ 20 | 19.9 | 1390 | ≥ 20 | ≥ 20 | Cc1ccc(C(=O)NCCn2cc(C(=O)NC(C#N)c3ccc(C(F)(F)F)cc3)nn2)c(F)c1 (stereo not drawn) [Example 75, 1-[2-(2-Fluoro-4-methyl-benzoylamino)-ethyl]-1H-[1,2,3]triazole-4-carboxylic acid [cyano-(4-trifluoromethyl-phenyl)-methyl]-amide]
6 | ≥ 20 | ≥ 20 | 205 | ≥ 20 | ≥ 20 | CCOC(=O)[C@H](CCc1ccccc1)NC(=O)c1cn(CCNC(=O)c2ccc(C(F)(F)F)cc2F)nn1 [Example 81, (S)-2-({1-[2-(2-Fluoro-4-trifluoromethyl-benzoylamino)-ethyl]-1H-[1,2,3]triazole-4-carbonyl}-amino)-4-phenyl-butyric acid ethyl ester]
7 | ≥ 20 | ≥ 20 | 996 | ≥ 20 | 18.3 | CCc1ccc(C(C#N)NC(=O)c2cn(CCNC(=O)c3ccc(C(F)(F)F)cc3OC)cn2)cc1 (stereo not drawn) [Example 92, 1-[2-(2-Methoxy-4-trifluoromethyl-benzoylamino)-ethyl]-1H-imidazole-4-carboxylic acid [cyano-(4-ethyl-phenyl)-methyl]-amide]
8 | ≥ 20 | ≥ 20 | 54 | ≥ 20 | ≥ 20 | CCc1ccc(C(C#N)NC(=O)c2nc(CCNC(=O)c3ccc(C(F)(F)F)cc3F)n[nH]2)cc1 (stereo not drawn) [Example 91, 5-[2-(2-Fluoro-4-trifluoromethyl-benzoylamino)-ethyl]-2H-[1,2,4]triazole-3-carboxylic acid [cyano-(4-ethyl-phenyl)-methyl]-amide]

More lines, now with the values behind:

Row | Compound | IC50 (β 1i (caspase-like)) [µM] | IC50 [1] [µM] | IC50 [2] [nM] | IC50 (β 2c/2i (trypsin-like)) [µM] | IC50 (β 1c (caspase-like)) [µM]
9 | CCc1ccc(C(C#N)NC(=O)c2cn(CCNC(=O)c3ccc(OC)c(OC)c3OC)nn2)nc1 (stereo not drawn) [Example 63, 1-[2-(2,3,4-Trimethoxy-benzoylamino)-ethyl]-1H-[1,2,3]triazole-4-carboxylic acid [cyano-(5-ethyl-pyridin-2-yl)-methyl]-amide] | ≥ 20 | ≥ 20 | 2490 | ≥ 20 | ≥ 20
10 | CCc1ccc(C(C#N)NC(=O)c2cn(CCNC(=O)c3cccc4c3OCC4)nn2)cc1 (stereo not drawn) [Example 13, 1-{2-[(2,3-Dihydro-benzofuran-7-carbonyl)-amino]-ethyl}-1H-[1,2,3]triazole-4-carboxylic acid [cyano-(4-ethyl-phenyl)-methyl]-amide] | ≥ 20 | ≥ 20 | 1890 | ≥ 20 | ≥ 20
11 | COc1ccc(C(=O)NCCn2cc(C(=O)NC(C#N)c3ccc(OC(C)C)cc3)nn2)c(OC)c1OC (stereo not drawn) [Example 67, 1-[2-(2,3,4-Trimethoxy-benzoylamino)-ethyl]-1H-[1,2,3]triazole-4-carboxylic acid [cyano-(4-isopropoxy-phenyl)-methyl]-amide] | ≥ 20 | ≥ 20 | 5490 | ≥ 20 | ≥ 20
12 | COc1ccc(C(C#N)NC(=O)c2cn(CCNC(=O)c3ccc(OC)c(OC)c3OC)nn2)cc1 (stereo not drawn) [Example 8, 1-[2-(2,3,4-Trimethoxy-benzoylamino)-ethyl]-1H-[1,2,3]triazole-4-carboxylic acid [cyano-(4-methoxy-phenyl)-methyl]-amide] | ≥ 20 | ≥ 20 | 423 | ≥ 20 | ≥ 20
13 | CCc1ccc(C(C#N)NC(=O)c2cn(CCNC(=O)c3ccc(C(F)(F)F)cn3)nn2)cc1 (stereo not drawn) [Example 45, 5-Trifluoromethyl-pyridine-2-carboxylic acid [2-(4-{[cyano-(4-ethyl-phenyl)-methyl]-carbamoyl}-[1,2,3]triazol-1-yl)-ethyl]-amide] | ≥ 20 | ≥ 20 | 1130 | ≥ 20 | ≥ 20
14 | CCc1ccc(C(C#N)NC(=O)c2cn(CCNC(=O)CC3Cc4ccccc4C3)nn2)cc1 (stereo not drawn) [Example 9, 1-[2-(2-Indan-2-yl-acetylamino)-ethyl]-1H-[1,2,3]triazole-4-carboxylic acid [cyano-(4-ethyl-phenyl)-methyl]-amide] | ≥ 20 | ≥ 20 | 4290 | ≥ 20 | ≥ 20
15 | CCc1ccc(CNC(=O)c2cn(CCNC(=O)c3ccc(OC)c(OC)c3OC)nn2)cc1 [Example 7, 1-[2-(2,3,4-Trimethoxy-benzoylamino)-ethyl]-1H-[1,2,3]triazole-4-carboxylic acid 4-ethyl-benzylamide] | ≥ 20 | ≥ 20 | 1160 | ≥ 20 | ≥ 20
16 | CCc1ccc(C(C#N)NC(=O)c2cn(CCNC(=O)c3ccc(Cl)cn3)nn2)cc1 (stereo not drawn) [Example 44, 5-Chloro-pyridine-2-carboxylic acid [2-(4-{[cyano-(4-ethyl-phenyl)-methyl]-carbamoyl}-[1,2,3]triazol-1-yl)-ethyl]-amide] | ≥ 20 | ≥ 20 | 2930 | ≥ 20 | ≥ 20
17 | CCc1ccc(C(C#N)NC(=O)c2cn(CCNC(=O)c3ccc(OC)c(OC)c3OC)nn2)cc1 (single isomer, unassigned) [Example 50] | ≥ 20 | ≥ 20 | 58 | ≥ 20 | ≥ 20
18 | CCc1ccc(C(C#N)NC(=O)c2cn(CCNC(=O)c3ccccc3COC)nn2)cc1 (stereo not drawn) [Example 33, 1-[2-(2-Methoxymethyl-benzoylamino)-ethyl]-1H-[1,2,3]triazole-4-carboxylic acid [cyano-(4-ethyl-phenyl)-methyl]-amide] | ≥ 20 | ≥ 20 | 1800 | ≥ 20 | ≥ 20
